Experimental findings from ChEMBL document CHEMBL5506059, “Cyanomethylquinolones as a New Class of Potential Multitargeting Broad-Spectrum Antibacterial Agents” (J Med Chem, 2024) are described below.

Each structure is given as a SMILES string. Values after ≈ are worked out from the molar mass of the structure shown.

Holding throughout (assay type): functional
The test system of assay [1] is Staphylococcus aureus. The assay can be described thus: Antibacterial activity against Staphylococcus aureus ATCC 25923 assessed as inhibition of bacterial growth incubated for 24 hrs.
Assay [2] has as its system Pseudomonas aeruginosa. As to the kind of experiment: Antibacterial activity against Pseudomonas aeruginosa ATCC 27853 assessed as inhibition of bacterial growth incubated for 24 hrs.
Assay [3] concerns Staphylococcus aureus. As to the kind of experiment: Antibacterial activity against Staphylococcus aureus clinical isolate assessed as inhibition of bacterial growth incubated for 24 hrs.
The subject of assay [4] is Escherichia coli. The assay can be described thus: Antibacterial activity against Escherichia coli ATCC 25922 assessed as inhibition of bacterial growth incubated for 24 hrs.
The subject of assay [5] is Escherichia coli. The assay can be described thus: Antibacterial activity against Escherichia coli clinical isolate assessed as inhibition of bacterial growth incubated for 24 hrs.
The test system of assay [6] is Pseudomonas aeruginosa. As to the kind of experiment: Antibacterial activity against Pseudomonas aeruginosa clinical isolate assessed as inhibition of bacterial growth incubated for 24 hrs.
The test system of assay [7] is Staphylococcus aureus. The assay can be described thus: Antibacterial activity against Staphylococcus aureus ATCC 29213 assessed as inhibition of bacterial growth incubated for 24 hrs.
For assay [8], the system named is Staphylococcus aureus. The assay can be described thus: Antibacterial activity against methicillin resistant Staphylococcus aureus clinical isolate assessed as inhibition of bacterial growth incubated for 24 hrs.
The test system of a further assay is Acinetobacter baumannii. The assay can be described thus: Antibacterial activity against Acinetobacter baumannii clinical isolate assessed as inhibition of bacterial growth incubated for 24 hrs.
Another assay relates to Klebsiella pneumoniae. The assay can be described thus: Antibacterial activity against Klebsiella pneumoniae clinical isolate assessed as inhibition of bacterial growth incubated for 24 hrs.
In the next assay the test system is Enterococcus faecalis. As to the kind of experiment: Antibacterial activity against Enterococcus faecalis clinical isolate assessed as inhibition of bacterial growth incubated for 24 hrs.

In general, MIC refers to the smallest concentration in the dilution series that meets the test's criterion for growth inhibition.

For the compound `CC(C)=CCn1cc(C(=O)O)c(=O)c2cc(F)c(CC#N)cc21`, the MIC with Staphylococcus aureus [1] came out at 0.25 µg/mL (≈ 0.795 µM); in the assay with Pseudomonas aeruginosa [2], 2 µg/mL (≈ 6.36 µM); in the assay on Staphylococcus aureus [3] it was 256 µg/mL (≈ 814 µM); in the assay on Escherichia coli [4], 0.5 µg/mL (≈ 1.59 µM); with Escherichia coli [5] it was 256 µg/mL (≈ 814 µM); in the assay on Pseudomonas aeruginosa [6], 0.5 µg/mL (≈ 1.59 µM). Further, the MIC in the assay on Staphylococcus aureus [7] stood at 16 µg/mL (≈ 50.9 µM); with Staphylococcus aureus [8] it was 1 µg/mL (≈ 3.18 µM); with Acinetobacter baumannii, 256 µg/mL (≈ 814 µM); in the assay on Klebsiella pneumoniae, 0.5 µg/mL (≈ 1.59 µM); in the assay with Enterococcus faecalis it was 128 µg/mL (≈ 407 µM).

With `O=C(O)Cc1cc2c(cc1F)c(=O)c(C(=O)O)cn2Cc1ccccc1`, the MIC was 16 µg/mL (≈ 45 µM) with Staphylococcus aureus [1]; 8 µg/mL (≈ 22.5 µM) in the assay with Pseudomonas aeruginosa [2]; 32 µg/mL (≈ 90.1 µM) in the assay with Staphylococcus aureus [3]; 8 µg/mL (≈ 22.5 µM) in the assay with Escherichia coli [4]; 64 µg/mL (≈ 180 µM) in the assay with Escherichia coli [5]; 32 µg/mL (≈ 90.1 µM) in the assay with Pseudomonas aeruginosa [6]. Further, the minimal inhibitory concentration (MIC) was 64 µg/mL (≈ 180 µM) in the assay on Staphylococcus aureus [7]; 16 µg/mL (≈ 45 µM) with Staphylococcus aureus [8]; 64 µg/mL (≈ 180 µM) with Acinetobacter baumannii; 4 µg/mL (≈ 11.3 µM) in the assay with Klebsiella pneumoniae; 32 µg/mL (≈ 90.1 µM) with Enterococcus faecalis.

Consider `N#CCc1cc2c(cc1F)c(=O)c(C(=O)O)cn2Cc1ccc(Cl)cc1`, for which the MIC worked out at 0.5 µg/mL (≈ 1.35 µM) in the assay with Staphylococcus aureus [1]; 256 µg/mL (≈ 690 µM) with Pseudomonas aeruginosa [2]; 256 µg/mL (≈ 690 µM) in the assay on Staphylococcus aureus [3]; 256 µg/mL (≈ 690 µM) with Escherichia coli [4]; 256 µg/mL (≈ 690 µM) in the assay on Escherichia coli [5]; 0.5 µg/mL (≈ 1.35 µM) in the assay on Pseudomonas aeruginosa [6]. Also, the MIC in the assay with Staphylococcus aureus [7] was found to be 4 µg/mL (≈ 10.8 µM); with Staphylococcus aureus [8] it was 256 µg/mL (≈ 690 µM); in the assay with Acinetobacter baumannii, 16 µg/mL (≈ 43.2 µM); in the assay on Klebsiella pneumoniae, 256 µg/mL (≈ 690 µM); in the assay with Enterococcus faecalis, 256 µg/mL (≈ 690 µM).

For `CCn1cc(C(=O)O)c(=O)c2cc(F)c(CC(=O)O)cc21`, the MIC in the assay on Staphylococcus aureus [1] is 16 µg/mL (≈ 54.6 µM); with Pseudomonas aeruginosa [2] it was 2 µg/mL (≈ 6.82 µM); in the assay with Staphylococcus aureus [3], 64 µg/mL (≈ 218 µM); with Escherichia coli [4] it was 8 µg/mL (≈ 27.3 µM); in the assay on Escherichia coli [5], 8 µg/mL (≈ 27.3 µM); with Pseudomonas aeruginosa [6], 8 µg/mL (≈ 27.3 µM). The MIC in the assay with Staphylococcus aureus [7] amounted to 32 µg/mL (≈ 109 µM); with Staphylococcus aureus [8] it was 64 µg/mL (≈ 218 µM); in the assay with Acinetobacter baumannii it was 16 µg/mL (≈ 54.6 µM); with Klebsiella pneumoniae, 1 µg/mL (≈ 3.41 µM); with Enterococcus faecalis, 0.5 µg/mL (≈ 1.71 µM).

Take `CCn1cc(C(=O)O)c(=O)c2cc(F)c(CC#N)c(F)c21`: the minimum inhibitory concentration (MIC) with Staphylococcus aureus [1] came out at 16 µg/mL (≈ 54.7 µM); in the assay with Pseudomonas aeruginosa [2] it was 4 µg/mL (≈ 13.7 µM); in the assay on Staphylococcus aureus [3] it was 0.25 µg/mL (≈ 0.855 µM); in the assay on Escherichia coli [4], 0.5 µg/mL (≈ 1.71 µM); with Escherichia coli [5] it was 4 µg/mL (≈ 13.7 µM); with Pseudomonas aeruginosa [6] it was 1 µg/mL (≈ 3.42 µM). Also, the minimum inhibitory concentration (MIC) in the assay with Staphylococcus aureus [7] stood at 1 µg/mL (≈ 3.42 µM); with Staphylococcus aureus [8] it was 1 µg/mL (≈ 3.42 µM); in the assay on Acinetobacter baumannii it was 0.5 µg/mL (≈ 1.71 µM); with Klebsiella pneumoniae, 16 µg/mL (≈ 54.7 µM); in the assay with Enterococcus faecalis, 8 µg/mL (≈ 27.4 µM).

As for `N#CCc1cc2c(cc1F)c(=O)c(C(=O)O)cn2CC(=O)N1CCCCC1`, the MIC came out at 16 µg/mL (≈ 43.1 µM) in the assay on Staphylococcus aureus [1]; 4 µg/mL (≈ 10.8 µM) in the assay on Pseudomonas aeruginosa [2]; 128 µg/mL (≈ 345 µM) in the assay on Staphylococcus aureus [3]; 4 µg/mL (≈ 10.8 µM) with Escherichia coli [4]; 16 µg/mL (≈ 43.1 µM) with Escherichia coli [5]; 1 µg/mL (≈ 2.69 µM) in the assay with Pseudomonas aeruginosa [6]. Besides, the MIC with Staphylococcus aureus [7] came to 4 µg/mL (≈ 10.8 µM); in the assay with Staphylococcus aureus [8] it was 4 µg/mL (≈ 10.8 µM); in the assay with Acinetobacter baumannii, 64 µg/mL (≈ 172 µM); with Klebsiella pneumoniae, 16 µg/mL (≈ 43.1 µM); in the assay on Enterococcus faecalis it was 64 µg/mL (≈ 172 µM).

On to `N#CCc1cc2c(cc1F)c(=O)c(C(=O)O)cn2CC1CCCC1`, for which the MIC was 64 µg/mL (≈ 195 µM) in the assay on Staphylococcus aureus [1]; 128 µg/mL (≈ 390 µM) in the assay with Pseudomonas aeruginosa [2]; 128 µg/mL (≈ 390 µM) in the assay with Staphylococcus aureus [3]; 256 µg/mL (≈ 780 µM) in the assay with Escherichia coli [4]; 32 µg/mL (≈ 97.5 µM) in the assay on Escherichia coli [5]; 256 µg/mL (≈ 780 µM) with Pseudomonas aeruginosa [6]. In addition, the MIC was 256 µg/mL (≈ 780 µM) in the assay on Staphylococcus aureus [7]; 256 µg/mL (≈ 780 µM) in the assay with Staphylococcus aureus [8]; 128 µg/mL (≈ 390 µM) in the assay with Acinetobacter baumannii; 256 µg/mL (≈ 780 µM) in the assay on Klebsiella pneumoniae; 256 µg/mL (≈ 780 µM) with Enterococcus faecalis.

Take `O=C(O)Cc1cc2c(cc1F)c(=O)c(C(=O)O)cn2Cc1ccccc1Cl`: the MIC came to 16 µg/mL (≈ 41.1 µM) in the assay with Staphylococcus aureus [1]; 4 µg/mL (≈ 10.3 µM) in the assay on Pseudomonas aeruginosa [2]; 32 µg/mL (≈ 82.1 µM) in the assay on Staphylococcus aureus [3]; 8 µg/mL (≈ 20.5 µM) with Escherichia coli [4]; 32 µg/mL (≈ 82.1 µM) in the assay with Escherichia coli [5]; 64 µg/mL (≈ 164 µM) in the assay with Pseudomonas aeruginosa [6]. The minimum inhibitory concentration (MIC) with Staphylococcus aureus [7] is 8 µg/mL (≈ 20.5 µM); in the assay on Staphylococcus aureus [8], 32 µg/mL (≈ 82.1 µM); with Acinetobacter baumannii it was 32 µg/mL (≈ 82.1 µM); in the assay with Klebsiella pneumoniae, 0.5 µg/mL (≈ 1.28 µM); in the assay with Enterococcus faecalis it was 32 µg/mL (≈ 82.1 µM).

Regarding `N#CCc1cc2c(cc1F)c(=O)c(C(=O)O)cn2CCN1CCOCC1`, the MIC in the assay on Staphylococcus aureus [1] worked out at 1 µg/mL (≈ 2.78 µM); in the assay on Pseudomonas aeruginosa [2], 16 µg/mL (≈ 44.5 µM); with Staphylococcus aureus [3] it was 16 µg/mL (≈ 44.5 µM); in the assay on Escherichia coli [4] it was 4 µg/mL (≈ 11.1 µM); in the assay on Escherichia coli [5] it was 16 µg/mL (≈ 44.5 µM); in the assay with Pseudomonas aeruginosa [6] it was 2 µg/mL (≈ 5.57 µM). For the same compound, the MIC was found to be 4 µg/mL (≈ 11.1 µM) in the assay with Staphylococcus aureus [7]; 8 µg/mL (≈ 22.3 µM) in the assay on Staphylococcus aureus [8]; 8 µg/mL (≈ 22.3 µM) in the assay with Acinetobacter baumannii; 8 µg/mL (≈ 22.3 µM) in the assay on Klebsiella pneumoniae; 16 µg/mL (≈ 44.5 µM) in the assay on Enterococcus faecalis.
